Values quoted from earlier work, collected in patent US10945968B2, “Memantine transdermal delivery systems” (Corium, Inc., priority 2016, dated 2021).

Conditions: DRUGBANK Accession No. DB01043

SMILES: C[C@]12CC3C[C@](C)(C1)C[C@@](N)(C3)C2 [Memantine, 3,5-dimethyladamantan-1-amine]
- Log P reported range: 3.31-2.07
